Laboratory results: US20080132505A1 (Glaxo Group Limited, priority 2004, published 2008)
Read-outs that look alike come from different tables or passages of the source.

Biological target: human cannabinoid CB2 receptor (Homo sapiens, UniProt P34972)
Test: Cannabinoid CB2 receptor agonist activity (yeast reporter assay, FDGlu fluorescence)
Format: cell-based
Settings: for Emax: read-out: efficacy value (Emax relative to HU210) at the cloned human cannabinoid CB2 receptor
Procedure, shortened: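 S. cerevisiae MMY23 expressing human CB2 with a Gpa1/Gαi3 chimeric G-protein, grown 24 h at 30 °C with agonist (1% DMSO) in selective media containing 10 mM 3-aminotriazole and FDGlu, pH 7.0. Fluorescein fluorescence (485/535 nm) fitted by four-parameter curve; Emax and EMR relative to HU210.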

[1] = EC50 value at the cloned human cannabinoid CB2 receptor

Sequence of human cannabinoid CB2 receptor (P34972 whole entry): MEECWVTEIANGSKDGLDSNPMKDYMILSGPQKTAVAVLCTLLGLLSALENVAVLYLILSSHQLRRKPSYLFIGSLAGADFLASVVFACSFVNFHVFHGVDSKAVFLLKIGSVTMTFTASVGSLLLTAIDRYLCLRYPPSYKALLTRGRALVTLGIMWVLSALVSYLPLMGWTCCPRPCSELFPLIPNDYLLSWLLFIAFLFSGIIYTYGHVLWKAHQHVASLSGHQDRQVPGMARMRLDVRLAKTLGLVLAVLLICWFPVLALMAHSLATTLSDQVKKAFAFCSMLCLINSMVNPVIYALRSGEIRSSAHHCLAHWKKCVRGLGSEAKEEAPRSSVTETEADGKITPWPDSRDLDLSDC

| SMILES | EC50 [1] | Emax | EC50 (read-out: EC50 value at the cloned human cannabinoid CB2 receptor) |
| --- | --- | --- | --- |
| COc1cccc(Nc2ncc(C(=O)NC3CCCC3)c(C(F)(F)F)n2)c1 [Example 76, 3-Methoxyphenylamino-4-trifluoromethyl-pyrimidine-5-carboxylic acid cyclopentylamide] | 300 to 1000 nM | > 50% | – |
| Cc1ccc(Nc2ncc(C(=O)NCC3CCCCC3)c(C(F)(F)F)n2)c(Cl)c1 [Example 244, 2-(2-Chloro-4-methylphenylamino)-4-trifluoromethyl-pyrimidine-5-carboxylic acid cyclohexylmethyl-amide] | 20 to 300 nM | > 50% | – |
| O=C(NCC1CCOCC1)c1cnc(Nc2cc(Br)cc(C(F)(F)F)c2)nc1C(F)(F)F [Example 179, 2-(3-Bromo-5-(trifluoromethyl)phenylamino)-4-trifluoromethyl-pyrimidine-5-carboxylic acid (tetrahydropyran-4-ylmethyl)-amide] | 20 to 300 nM | > 50% | – |
| O=C(NCC1CCC1)c1cnc(Nc2cccc(Cl)c2F)nc1C(F)(F)F [Example 195, 2-(3-Chloro-2-fluorophenylamino)-4-trifluoromethyl-pyrimidine-5-carboxylic acid cyclobutylmethyl-amide] | 20 to 300 nM | > 50% | – |
| O=C(NCC1CCCCC1)c1cnc(Nc2cc(Cl)cc(Cl)c2)nc1C(F)(F)F [Example 18, 2-(3,5-Dichlorophenylamino)-4-trifluoromethylprimidine-5-carboxylic acid cyclohexylmethyl-amide] | 20 to 300 nM | > 50% | – |
| COc1cccc(Nc2ncc(C(=O)NCC3CCCC3)c(C(F)(F)F)n2)c1 [Example 46, 2-(3-Methoxyphenylamino)-4-trifluoromethylpyrimidine-5-carboxylic acid cyclopentylmethyl-amide] | 20 to 300 nM | > 50% | – |
| O=C(NCC1CCC1)c1cnc(Nc2ccc(F)cc2Cl)nc1C(F)(F)F [Example 224, 2-(2-Chloro-4-fluoro-phenylamino)-4-trifluoromethyl-pyrimidine-5-carboxylic acid cyclobutylmethyl-amide] | 20 to 300 nM | > 50% | – |
| Cc1cc(Cl)ccc1Nc1ncc(C(=O)NCC2CCC2)c(C(F)(F)F)n1 [Example 253, 2-(2-Methyl-4-chloro-phenylamino)-4-trifluoromethyl-pyrimidine-5-carboxylic acid cyclobutylmethyl-amide] | 20 to 300 nM | > 50% | – |
| CN(Cc1ccccc1)C(=O)c1cnc(Nc2cccc(Cl)c2Cl)nc1C(F)(F)F [Example 272, 2-(2,3-Dichlorophenylamino)-4-trifluoromethylpyrimidine-5-carboxylic acid N-benzyl-N-methylamide] | 20 to 300 nM | – | – |
| O=C(NCC1CCC1)c1cnc(Nc2cccc(C(F)(F)F)c2F)nc1C(F)(F)F [Example 252, 2-(2-Fluoro-3-trifluoromethyl-phenylamino)-4-trifluoromethyl-pyrimidine-5-carboxylic acid cyclobutylmethyl-amide] | 20 to 300 nM | > 50% | – |
| COc1ccc(CNC(=O)c2cnc(Nc3cccc(Cl)c3)nc2C(F)(F)F)cc1 [Example 269, 2-(3-Chlorophenylamino)-4-trifluoromethylpyrimidine-5-carboxylic acid 4-methoxybenzyl-amide] | 20 to 300 nM | > 50% | – |
| Cc1c(Cl)cccc1Nc1ncc(C(=O)NCC2CCCCC2)c(C(F)(F)F)n1 [Example 93, 2-(3-Chloro-2-methyl-phenylamino)-4-trifluoromethyl-pyrimidine-5-carboxylic acid cyclohexylmethyl-amide] | 300 to 1000 nM | > 50% | – |
| O=C(NCc1ccc(F)cc1)c1cnc(Nc2cc(Cl)ccc2F)nc1C(F)(F)F [Example 349, 2-(5-Chloro-2-fluoro-phenylamino)-4-trifluoromethyl-pyrimidine-5-carboxylic acid 4-fluoro-benzylamide] | 20 to 300 nM | – | – |
| O=C(NCC1CCC1)c1cnc(Nc2cc(F)cc(F)c2)nc1C(F)(F)F [Example 192, 2-(3,5-Difluorophenylamino)-4-trifluoromethyl-pyrimidine-5-carboxylic acid cyclobutylmethyl-amide] | 20 to 300 nM | > 50% | – |
| O=C(c1cnc(Nc2cccc(Cl)c2Cl)nc1C(F)(F)F)N1CCOCC1 [Example 6, 1-[2-(2,3-Dichlorophenylamino)-4-trifluoromethylpyrimidin-5-yl]-1-morpholin-4-yl-methanone] | 20 to 300 nM | > 50% | – |
| O=C(NC1CCC1)c1cnc(Nc2cccc(Br)c2)nc1C(F)(F)F [Example 47, 2-(3-Bromophenylamino)-4-trifluoromethylpyrimidine-5-carboxylic acid cyclobutylamide] | – | – | 20 to 300 nM |
| O=C(NCC1CCCCC1)c1cnc(Nc2ccc(Cl)cc2Br)nc1C(F)(F)F [Example 238, 2-(2-Bromo-4-chloro-phenylamino)-4-trifluoromethyl-pyrimidine-5-carboxylic acid cyclohexylmethyl-amide] | 20 to 300 nM | > 50% | – |

| SMILES | EC50 [1] | Emax | EC50 (read-out: EC50 value at the cloned human cannabinoid CB2 receptor) |
| --- | --- | --- | --- |
| O=C(NCC1CCC1)c1cnc(Nc2ccccc2Cl)nc1C(F)(F)F [Example 257, 2-(2-Chlorophenylamino)-4-trifluoromethyl-pyrimidine-5-carboxylic acid cyclobutylmethyl-amide] | 300 to 1000 nM | > 50% | – |
| O=C(c1cnc(Nc2cccc(F)c2)nc1C(F)(F)F)N1CCCCC1 [Example 78, 1-[2-(3-fluorophenylamino)-4-trifluoromethyl-pyrimidin-5-yl]-1-piperidin-1-yl-methanone] | 300 to 1000 nM | > 50% | – |
| Cc1ccc(Cl)cc1Nc1ncc(C(=O)NCC2CCCC2)c(C(F)(F)F)n1 [Example 183, 2-(5-Chloro-2-methylphenylamino)-4-trifluoromethyl-pyrimidine-5-carboxylic acid (cyclopentylmethyl)-amide] | 20 to 300 nM | > 50% | – |
| O=C(NCC1CCOCC1)c1cnc(Nc2cccc(F)c2)nc1C(F)(F)F [Example 31, 2-(3-Fluorophenylamino)-4-trifluoromethylpyrimidine-5-carboxylic acid (tetrahydropyran-4-ylmethyl)amide] | 20 to 300 nM | > 50% | – |
| O=C(NCc1ccncc1)c1cnc(Nc2cccc(Cl)c2)nc1C(F)(F)F [Example 267, 2-(3-Chlorophenylamino)-4-trifluoromethylpyrimidine-5-carboxylic acid (pyridin-4-ylmethyl)amide] | 20 to 300 nM | – | – |
| N#Cc1ccc(CNC(=O)c2cnc(Nc3cccc(Cl)c3)nc2C(F)(F)F)cc1 [Example 271, 2-(3-Chlorophenylamino)-4-trifluoromethylpyrimidine-5-carboxylic acid 4-cyanobenzyl-amide] | 20 to 300 nM | > 50% | – |
| O=C(NCC1(O)CCOCC1)c1cnc(Nc2cccc(Br)c2)nc1C(F)(F)F [Example 87, 2-(3-Bromophenyl-amino)-4-trifluoromethyl-pyrimidine-5-carboxylic acid (4-hydroxytetrahydropyran-4-ylmethyl)amide] | 300 to 1000 nM | > 50% | – |
| CC(C)c1cc(Nc2cccc(C(F)(F)F)c2)ncc1C(=O)NCc1ccc(F)cc1 [Example 393, N-(4-Fluoro-benzyl)-4-isopropyl-6-(3-trifluoromethyl-phenylamino)-nicotinamide] | – | > 50% | – |
| O=C(NCC1CCC1)c1cnc(Nc2c(Cl)cccc2Cl)nc1C(F)(F)F [Example 203, 2-(2,6-Dichlorophenylamino)-4-trifluoromethyl-pyrimidine-5-carboxylic acid cyclobutylmethyl-amide] | 20 to 300 nM | > 50% | – |
| O=C(NCC1CC1)c1cnc(Nc2cccc(Br)c2)nc1C(F)(F)F [Example 240, 2-(3-Bromophenylamino)-4-trifluoromethyl-pyrimidine-5-carboxylic acid cyclopropylmethyl-amide] | 20 to 300 nM | > 50% | – |
| O=C(NCC1CCCCC1)c1cnc(Nc2ccc(Br)cc2F)nc1C(F)(F)F [Example 231, 2-(2-Fluoro-4-bromo-phenylamino)-4-trifluoromethyl-pyrimidine-5-carboxylic acid cyclohexylmethyl-amide] | 20 to 300 nM | > 50% | – |
| N#Cc1ccc(Nc2ncc(C(=O)NCC3CCC3)c(C(F)(F)F)n2)c(Cl)c1 [Example 103, 2-(2-Chloro-4-cyanophenylamino)-4-trifluoromethyl-pyrimidine-5-carboxylic acid cyclobutylmethyl-amide] | 300 to 1000 nM | > 50% | – |
| Cc1ccc(Cl)c(Nc2ncc(C(=O)NCC3CCOCC3)c(C(F)(F)F)n2)c1 [Example 113, 2-(2-Chloro-5-methyl-phenylamino)-4-tri-fluoromethyl-pyrimidine-5-carboxylic acid (tetrahydropyran-4-ylmethyl)-amide] | 300 to 1000 nM | > 50% | – |
| O=C(NCC1CCOCC1)c1cnc(Nc2ccc(Br)cc2Cl)nc1C(F)(F)F [Example 234, 2-(2-Chloro-4-bromo-phenylamino)-4-trifluoromethyl-pyrimidine-5-carboxylic acid (tetrahydro-pyran-4-ylmethyl)-amide] | 20 to 300 nM | > 50% | – |
| O=C(NC1CC1)c1cnc(Nc2cccc(Cl)c2)nc1C(F)(F)F [Example 209, 2-(3-Chlorophenylamino)-4-trifluoromethyl-pyrimidine-5-carboxylic acid cyclopropylamide] | 20 to 300 nM | > 50% | – |
| O=C(c1cnc(Nc2cccc(Br)c2)nc1C(F)(F)F)N1CCOCC1 [Example 11, 1-[2-(3-Bromophenylamino)-4-trifluoromethylpyrimidin-5-yl]-1-morpholin-4-yl-methanone] | 20 to 300 nM | > 50% | – |
| COc1cccc(Nc2ncc(C(=O)NCc3ccncc3)c(C(F)(F)F)n2)c1 [Example 352, 2-(3-Methoxy-phenylamino)-4-trifluoromethyl-pyrimidine-5-carboxylic acid (pyridin-4-ylmethyl)-amide] | 20 to 300 nM | – | – |
